In ChEMBL document CHEMBL5113481, “Design, synthesis and biological evaluation of quinoline-2-carbonitrile-based hydroxamic acids as dual tubulin polymerization and histone deacetylases inhibitors” (Eur J Med Chem, 2022):
≈ marks a conversion by molar mass, not a printed value. Blank lines part the entries; values can stand above or below the compound they belong to. Calls of active or inactive are those of the source. The calls are words filed in the database; no cut-off is given here.

Assays:
NCI-N87 = test: Antiproliferative activity against human NCI-N87 cells after 72 hrs by CellTiter Glo assay; format: functional, cell-based; settings: NCI-N87, 72 h
HCT-116 = test: Antiproliferative activity against human HCT-116 cells after 72 hrs by CellTiter Glo assay; format: functional, cell-based; settings: for GI50: time 72 hrs
K562 [1] = test: Antiproliferative activity against human K562 cells after 72 hrs by CellTiter Glo assay; format: functional, cell-based; settings: K562, 72 h
K562 [2] = test: Antiproliferative activity against imatinib-resistant human K562 cells over expressing MDR1 after 72 hrs by CellTiter Glo assay; format: functional, cell-based; settings: K562, 72 h
MIA PaCa-2 = test: Antiproliferative activity against human MIA PaCa-2 cells after 72 hrs by CellTiter Glo assay; format: functional, cell-based; settings: MIA PaCa-2, 72 h
A549 = test: Antiproliferative activity against human A549 cells after 72 hrs by CellTiter Glo assay; format: functional, cell-based; settings: A549, 72 h
MCF7 = test: Antiproliferative activity against human MCF7 cells after 72 hrs by CellTiter Glo assay; format: functional, cell-based; settings: MCF7, 72 h
HT-29 [3] = test: Antiproliferative activity against human HT-29 cells after 72 hrs by CellTiter Glo assay; format: functional, cell-based; settings: HT-29, 72 h
SK-OV-3 = test: Antiproliferative activity against human SK-OV-3 cells after 72 hrs by CellTiter Glo assay; format: functional, cell-based; settings: SK-OV-3, 72 h
MDA-MB-231 = test: Antiproliferative activity against human MDA-MB-231 cells after 72 hrs by CellTiter Glo assay; format: functional, cell-based; settings: MDA-MB-231, 72 h
[4] = Metabolic stability in rat liver microsomes assessed as half-life measured upto 6 hrs in presence of NADPH generating system by HPLC-MS/MS analysis; format: ADME, Microsome
[5] = Metabolic stability in rat liver microsomes assessed as intrinsic clearance per mg protein measured upto 6 hrs in presence of NADPH generating system by HPLC-MS/MS analysis; format: ADME, Microsome; settings: read-out: CLH
[6] = Metabolic stability in human liver microsomes assessed as half-life measured upto 6 hrs in presence of NADPH generating system by HPLC-MS/MS analysis; format: ADME, Microsome
[7] = Metabolic stability in human liver microsomes assessed as intrinsic clearance per mg protein measured upto 6 hrs in presence of NADPH generating system by HPLC-MS/MS analysis; format: ADME, Microsome; settings: read-out: CLH
HT-29 [8] = test: Cell cycle arrest in human HT-29 cells assessed as accumulation of cells in G2/M phase at 0.1 to 5 nM measured after 24 hrs by PI staining based flow cytometry method; format: functional; settings: dose 0.1-5 nM, DDE = dose-dependent effect
HT-29 [9] = test: Cell cycle arrest in human HT-29 cells assessed as accumulation of cells in G2/M phase at 5 nM measured after 24 hrs by PI staining based flow cytometry method; format: functional
HT-29 [10] = test: Induction of mitochondrial dysfunction in human HT-29 cells at 2 nM measured after 48 hrs by JC-1 staining based flow cytometry; format: functional, cell-based
[11] = target: T1, Protein deacetylase HDAC6 (Homo sapiens, UniProt Q9UBN7); test: Inhibition of HDAC6 (unknown origin) measured by fluorometry assay
T1 sequence (Q9UBN7 whole entry): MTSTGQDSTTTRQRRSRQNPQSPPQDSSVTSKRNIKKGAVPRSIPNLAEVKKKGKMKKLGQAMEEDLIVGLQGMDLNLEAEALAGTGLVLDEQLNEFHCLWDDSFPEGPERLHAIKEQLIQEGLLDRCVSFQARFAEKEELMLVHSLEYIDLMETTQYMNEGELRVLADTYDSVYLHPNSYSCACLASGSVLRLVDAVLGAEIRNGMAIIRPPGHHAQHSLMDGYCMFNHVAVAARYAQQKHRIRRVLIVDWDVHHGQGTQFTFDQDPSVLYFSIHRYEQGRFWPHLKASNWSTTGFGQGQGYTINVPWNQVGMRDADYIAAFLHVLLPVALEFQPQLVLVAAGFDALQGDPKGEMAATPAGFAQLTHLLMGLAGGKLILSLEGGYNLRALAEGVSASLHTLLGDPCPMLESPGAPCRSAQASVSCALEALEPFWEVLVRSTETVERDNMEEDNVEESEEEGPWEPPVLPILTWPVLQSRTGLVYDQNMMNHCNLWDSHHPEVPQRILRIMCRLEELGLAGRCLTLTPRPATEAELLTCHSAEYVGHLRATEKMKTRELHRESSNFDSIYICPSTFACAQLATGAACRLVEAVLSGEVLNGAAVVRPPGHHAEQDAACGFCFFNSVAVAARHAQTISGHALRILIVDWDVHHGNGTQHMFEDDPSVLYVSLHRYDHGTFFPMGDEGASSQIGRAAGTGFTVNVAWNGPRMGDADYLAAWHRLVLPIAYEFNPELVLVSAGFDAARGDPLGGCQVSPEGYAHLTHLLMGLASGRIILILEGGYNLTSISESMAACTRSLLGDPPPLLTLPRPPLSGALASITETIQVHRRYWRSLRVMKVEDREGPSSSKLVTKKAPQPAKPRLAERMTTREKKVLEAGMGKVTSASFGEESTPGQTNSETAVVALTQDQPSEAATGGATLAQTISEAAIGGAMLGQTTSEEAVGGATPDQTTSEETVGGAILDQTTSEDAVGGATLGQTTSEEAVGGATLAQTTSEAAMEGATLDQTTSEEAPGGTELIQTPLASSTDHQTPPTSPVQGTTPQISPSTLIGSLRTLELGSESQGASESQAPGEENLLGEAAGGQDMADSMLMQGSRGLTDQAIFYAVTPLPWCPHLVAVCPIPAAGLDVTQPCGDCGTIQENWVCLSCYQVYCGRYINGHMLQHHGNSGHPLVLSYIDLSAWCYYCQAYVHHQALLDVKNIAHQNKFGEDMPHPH

Histone deacetylase 8 = target: T2, Histone deacetylase 8 (Homo sapiens, UniProt Q9BY41); test: Inhibition of HDAC8 (unknown origin) measured by fluorometry assay
T2 sequence (Q9BY41 whole entry): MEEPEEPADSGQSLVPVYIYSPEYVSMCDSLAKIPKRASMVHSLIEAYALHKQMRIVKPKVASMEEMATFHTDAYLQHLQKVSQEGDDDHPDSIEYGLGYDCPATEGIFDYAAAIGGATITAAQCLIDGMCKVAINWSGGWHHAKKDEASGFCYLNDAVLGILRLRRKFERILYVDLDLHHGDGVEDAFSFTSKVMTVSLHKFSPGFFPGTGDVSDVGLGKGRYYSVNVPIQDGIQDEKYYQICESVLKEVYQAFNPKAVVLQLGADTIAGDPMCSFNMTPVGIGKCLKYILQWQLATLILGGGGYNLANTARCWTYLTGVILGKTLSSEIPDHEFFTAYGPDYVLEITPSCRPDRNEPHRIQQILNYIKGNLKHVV

Histone deacetylase 11 = target: T3, Histone deacetylase 11 (Homo sapiens, UniProt Q96DB2); test: Inhibition of HDAC11 (unknown origin) measured by fluorometry assay
T3 sequence (Q96DB2 whole entry): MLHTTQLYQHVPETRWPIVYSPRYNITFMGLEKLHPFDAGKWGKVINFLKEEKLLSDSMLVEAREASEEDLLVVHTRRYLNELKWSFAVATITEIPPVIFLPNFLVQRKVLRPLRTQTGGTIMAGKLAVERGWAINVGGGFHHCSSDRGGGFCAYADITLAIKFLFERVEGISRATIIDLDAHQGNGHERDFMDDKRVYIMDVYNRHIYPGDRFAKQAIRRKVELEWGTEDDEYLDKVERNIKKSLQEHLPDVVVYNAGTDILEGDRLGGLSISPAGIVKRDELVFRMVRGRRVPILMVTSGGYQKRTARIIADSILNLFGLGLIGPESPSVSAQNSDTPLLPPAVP

[12] = Solubility of compound in water; format: physicochemical
Tubulin = test: Inhibition of tubulin polymerization in human HeLa cells assessed as microtubule network polymerization after 30 mins by immunofluorescence analysis; format: cell-based

GI50 (HCT-116; Homo sapiens, HCT-116): 2600 nM
IC50 (K562 [1]): 2010 nM
IC50 (K562 [2]): 2200 nM
IC50 (MIA PaCa-2): > 20000 nM
IC50 (A549): 2000 nM
IC50 (MCF7): 2980 nM
IC50 (HT-29 [3]): > 10000 nM
SMILES: COc1ccc(Cn2ccc3ccc(C(=O)NO)cc32)cc1
IC50 (NCI-N87): 1500 nM

GI50 (HCT-116; Homo sapiens, HCT-116): 10.1 nM
SMILES: C=C(c1ccc(OC)c(/C=C/C(=O)NO)c1)c1cc(C)nc2ccccc12

GI50 (HCT-116; Homo sapiens, HCT-116): 4.91 nM
SMILES: COc1ccc(N(C)c2cc(C#N)nc3ccccc23)cc1/C=C/C(=O)NOC1CCCCO1 (stereo unspecified)

SMILES: COc1ccc(/C=C\c2cc(OC)c(OC)c(OC)c2)cc1O [COMBRETASTATIN A4]
IC50 (NCI-N87): 11 nM
GI50 (HCT-116; Homo sapiens, HCT-116): 2.4 nM
IC50 (K562 [2]): 25 nM
IC50 (MIA PaCa-2): 8 nM
IC50 (SK-OV-3): 6 nM
IC50 (MCF7): 172 nM
IC50 (HT-29 [3]): > 10000 nM

GI50 (HCT-116; Homo sapiens, HCT-116): 25.2 nM
SMILES: COc1ccc(N(C)c2cc(C#N)nc3ccccc23)cc1C#CCCC(=O)NO

GI50 (HCT-116; Homo sapiens, HCT-116): 64.5 nM
SMILES: COc1ccc(N(C)c2cc(C#N)nc3ccccc23)cc1OCC(=O)NO

IC50 (HCT-116; Homo sapiens, HCT-116, 72 h): 1.5 nM
IC50 (K562 [1]): 1.6 nM
IC50 (K562 [2]): 1.4 nM
IC50 (MIA PaCa-2): 6 nM
IC50 (SK-OV-3): 4 nM
IC50 (A549): 2 nM
IC50 (MCF7): 2.2 nM
IC50 (MDA-MB-231): 4.6 nM
IC50 (HT-29 [3]): 2 nM
half-life [4]: 4.42 h
microsomal CLint [5]: 2.57 µL/min/mg
half-life [6]: 14 h
microsomal CLint [7]: 0.83 µL/min/mg
SMILES: C=C(c1ccc(OC)c(/C=C/C(=O)NO)c1)c1cc(OC)c(OC)c(OC)c1
IC50 (NCI-N87): 3.2 nM

GI50 (HCT-116): 35 nM
IC50 (K562 [1]): 260 nM
IC50 (K562 [2]): 90 nM
IC50 (MIA PaCa-2): 200 nM
IC50 (SK-OV-3): 100 nM
IC50 (A549): 80 nM
IC50 (MCF7): 54 nM
IC50 (MDA-MB-231): 91 nM
IC50 (HT-29 [3]): 55 nM
SMILES: CC(/C=C/C(=O)NO)=C\[C@@H](C)C(=O)c1ccc(N(C)C)cc1 [TRICHOSTATIN]
IC50 (NCI-N87): 58 nM

GI50 (HCT-116; Homo sapiens, HCT-116): 6.3 nM
SMILES: COc1ccc(N(C)c2cc(C)nc3ccccc23)cc1/C=C/C(=O)NO

GI50 (HCT-116; Homo sapiens, HCT-116): 24.6 nM
SMILES: COc1ccc(N(C)c2cc(C#N)nc3ccccc23)cc1I

GI50 (HCT-116; Homo sapiens, HCT-116): 0.6 nM
IC50 (K562 [1]): 0.38 nM
IC50 (K562 [2]): 1.63 nM
IC50 (MIA PaCa-2): 1.1 nM
IC50 (SK-OV-3): 0.3 nM
IC50 (A549): 0.51 nM
IC50 (MCF7): 0.8 nM
IC50 (MDA-MB-231): 0.55 nM
IC50 (HT-29 [3]): 0.66 nM
IC50 [11]: 2000 nM
IC50 (Histone deacetylase 8): 280 nM
IC50 (Histone deacetylase 11): 3200 nM
solubility [12]: 65 µg/mL (≈ 178 µM)
half-life [4]: 3.53 h
microsomal CLint [5]: 3.27 µL/min/mg
half-life [6]: 9 h
microsomal CLint [7]: 1.28 µL/min/mg
SMILES: COc1ccc(N(C)c2nc(C)nc3ccccc23)cc1/C=C/C(=O)NO
IC50 (NCI-N87): 0.17 nM
Activity (HT-29 [8]): Dde
Activity (HT-29 [9]): >95%
Activity (HT-29 [10]): Active

GI50 (HCT-116; Homo sapiens, HCT-116): 34.4 nM
SMILES: COc1ccc(N(C)c2cc(C#N)nc3ccccc23)cc1/C=C/CCC(=O)NO

GI50 (HCT-116; Homo sapiens, HCT-116): 30.3 nM
SMILES: COc1ccc(N(C)c2cc(C)nc3ccccc23)cc1/C=C/C(=O)NOC1CCCCO1 (stereo unspecified)

SMILES: C=C(c1ccc(OC)c(O)c1)c1cc(OC)c(OC)c(OC)c1
IC50 (NCI-N87): 14 nM
GI50 (HCT-116; Homo sapiens, HCT-116): 2.2 nM
IC50 (K562 [2]): 3 nM
IC50 (SK-OV-3): 5 nM
IC50 (A549): 12 nM
IC50 (Tubulin): 6 nM
half-life [4]: 4.24 h
microsomal CLint [5]: 2.73 µL/min/mg
half-life [6]: 12 h
microsomal CLint [7]: 0.96 µL/min/mg

GI50 (HCT-116; Homo sapiens, HCT-116): 381 nM
SMILES: COc1ccc(N(C)c2cc(C#N)nc3ccccc23)cc1OCCCC(=O)NO

GI50 (HCT-116; Homo sapiens, HCT-116): 12.5 nM
SMILES: COc1ccc(N(C)c2nc(C)nc3ccccc23)cc1/C=C/C(=O)NOC1CCCCO1 (stereo unspecified)

GI50 (HCT-116; Homo sapiens, HCT-116): 1.5 nM
SMILES: COc1ccc(N(C)c2nc(C#N)nc3ccccc23)cc1/C=C/C(=O)NO
